The results in this text go back to publication PMC11320574 (ACS Infectious Diseases, 2024).

Molecules are shown by their SMILES. Positions of bridges follow the written chain, without caps; N, C: chain ends. Residues, ends and D or L forms follow the SMILES beside them.

Data set [1] is described as follows: Resistance to breakdown by serum proteases. It is filed as in vitro ADME. The following applies: human, 25% (v/v) human serum in PBS.
Data set [2] concerns P. falciparum 3D7. Description: In vitro growth inhibition of P. falciparum 3D7. In kind it is cell-based, Plasmodium falciparum. The following applies: HC10 of uninfected RBCs relative to Pf IC50 with 5 mg/mL Albumax II supplement.

The amount remaining is what is left of the initial amount, in per cent. A high value points to less turnover. Turning to `CC[C@H](C)[C@@H]1NC(=O)[C@H](CCCCN)NC(=O)[C@H](CCCCN)NC(=O)[C@H](Cc2ccc(O)cc2)NC(=O)[C@H](CC(C)C)NC(=O)[C@@H]2CCCN2C(=O)[C@H](C)NC(=O)CNC(=O)CNC(=O)[C@H](CO)NC(=O)CNC(=O)CNC(=O)[C@H](CO)NC(=O)[C@H](CCCCN)NC(=O)[C@H](CC(C)C)NC(=O)[C@H](CC(C)C)NC(=O)[C@H](CCCCN)NC(=O)[C@H](CCCCN)NC(=O)[C@H]([C@@H](C)CC)NC(=O)[C@H]([C@@H](C)CC)NC(=O)[C@H](CCCCN)NC(=O)[C@H](CCCCN)NC(=O)[C@H](Cc2ccc(O)cc2)NC(=O)[C@H](CC(C)C)NC(=O)[C@@H]2CCCN2C(=O)CNC(=O)CNC(=O)[C@@H](NC(=O)CN)CSSC[C@@H](C(N)=O)NC(=O)[C@H](CC(C)C)NC(=O)[C@H](CCCCN)NC(=O)[C@H](CCCCN)NC(=O)[C@H]([C@@H](C)CC)NC1=O` [Peptide 10] (H-GCGGPLYKKIIKKLLKSGGSGGAPLYKKIIKKLC-NH2; disulfide 2-34; N-terminus assumed), the share remaining at 24 h, 50 μM in data set [1] was determined as 0%. Moreover, the “Activity-hemolysis index RBC HC10/ Pf IC50” value in data set [2] came to 6.5 ± 1.2.
